Data as given in US20240246942A1, “KINASE INHIBITORS FOR THE TREATMENT OF NEURODEGENERATIVE DISEASES” (priority 2020, published 2024).

Experiments:
Test in all cases: biochemical
[1] = target: T1, panel of 374 wild-type kinases (Homo sapiens, UniProt O00444); details: read-out: % Enzyme Activity (relative to DMSO controls), kinase PLK4/SAK
T1 construct: purchased Reaction Biology Corporation
T1 sequence (O00444 1-970): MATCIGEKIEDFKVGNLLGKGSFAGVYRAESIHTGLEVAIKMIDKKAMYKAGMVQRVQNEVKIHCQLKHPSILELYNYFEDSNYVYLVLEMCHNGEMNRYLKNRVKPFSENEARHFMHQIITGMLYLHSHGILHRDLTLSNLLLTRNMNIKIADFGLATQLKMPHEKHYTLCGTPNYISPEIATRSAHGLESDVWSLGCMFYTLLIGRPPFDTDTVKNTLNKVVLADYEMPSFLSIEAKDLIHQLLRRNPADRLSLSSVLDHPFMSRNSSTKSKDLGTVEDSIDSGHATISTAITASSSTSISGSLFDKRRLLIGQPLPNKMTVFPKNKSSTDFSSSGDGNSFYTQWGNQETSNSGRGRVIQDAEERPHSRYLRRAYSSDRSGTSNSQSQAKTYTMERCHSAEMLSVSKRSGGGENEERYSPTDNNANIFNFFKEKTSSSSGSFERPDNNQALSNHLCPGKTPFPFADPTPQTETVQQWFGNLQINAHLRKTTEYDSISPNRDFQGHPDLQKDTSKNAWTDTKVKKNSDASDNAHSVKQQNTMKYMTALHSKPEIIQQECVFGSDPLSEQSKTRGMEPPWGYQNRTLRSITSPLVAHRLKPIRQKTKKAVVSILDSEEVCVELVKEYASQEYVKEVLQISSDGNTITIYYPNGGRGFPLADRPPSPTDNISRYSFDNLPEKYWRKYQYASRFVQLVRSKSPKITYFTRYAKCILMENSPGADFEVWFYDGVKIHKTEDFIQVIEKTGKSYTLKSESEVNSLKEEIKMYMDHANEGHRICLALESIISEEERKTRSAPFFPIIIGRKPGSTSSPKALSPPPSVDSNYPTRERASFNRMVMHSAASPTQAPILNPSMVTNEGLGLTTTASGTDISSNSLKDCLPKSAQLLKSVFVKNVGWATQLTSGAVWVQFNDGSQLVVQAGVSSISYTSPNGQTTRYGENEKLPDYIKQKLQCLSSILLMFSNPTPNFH

[2] = target: T2, panel of 374 wild-type kinases (Homo sapiens, UniProt O14757); details: read-out: % Enzyme Activity (relative to DMSO controls), CHK1
T2 construct: purchased Reaction Biology Corporation
T2 sequence (O14757 1-476): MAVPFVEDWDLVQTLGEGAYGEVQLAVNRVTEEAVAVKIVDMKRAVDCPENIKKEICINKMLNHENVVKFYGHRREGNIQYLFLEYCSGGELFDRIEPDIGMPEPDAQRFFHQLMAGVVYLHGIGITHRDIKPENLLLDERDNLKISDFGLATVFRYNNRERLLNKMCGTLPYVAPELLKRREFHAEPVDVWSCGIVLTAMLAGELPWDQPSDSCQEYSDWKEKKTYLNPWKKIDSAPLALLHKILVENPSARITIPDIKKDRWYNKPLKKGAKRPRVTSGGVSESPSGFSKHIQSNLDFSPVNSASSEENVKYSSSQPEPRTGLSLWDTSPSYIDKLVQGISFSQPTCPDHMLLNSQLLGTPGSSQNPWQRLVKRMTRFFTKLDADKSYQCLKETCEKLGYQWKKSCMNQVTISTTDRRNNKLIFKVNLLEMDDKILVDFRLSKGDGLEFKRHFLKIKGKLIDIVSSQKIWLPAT

[3] = target: T3, panel of 374 wild-type kinases (Homo sapiens, UniProt P17252); details: read-out: % Enzyme Activity (relative to DMSO controls), kinase PKCa
T3 construct: purchased Reaction Biology Corporation

[4] = target: T4, panel of 374 wild-type kinases (Homo sapiens, UniProt P29376); details: kinase TYK1/LTK, read-out: % Enzyme Activity (relative to DMSO controls)
T4 construct: purchased Reaction Biology Corporation
T4 sequence (P29376 17-864): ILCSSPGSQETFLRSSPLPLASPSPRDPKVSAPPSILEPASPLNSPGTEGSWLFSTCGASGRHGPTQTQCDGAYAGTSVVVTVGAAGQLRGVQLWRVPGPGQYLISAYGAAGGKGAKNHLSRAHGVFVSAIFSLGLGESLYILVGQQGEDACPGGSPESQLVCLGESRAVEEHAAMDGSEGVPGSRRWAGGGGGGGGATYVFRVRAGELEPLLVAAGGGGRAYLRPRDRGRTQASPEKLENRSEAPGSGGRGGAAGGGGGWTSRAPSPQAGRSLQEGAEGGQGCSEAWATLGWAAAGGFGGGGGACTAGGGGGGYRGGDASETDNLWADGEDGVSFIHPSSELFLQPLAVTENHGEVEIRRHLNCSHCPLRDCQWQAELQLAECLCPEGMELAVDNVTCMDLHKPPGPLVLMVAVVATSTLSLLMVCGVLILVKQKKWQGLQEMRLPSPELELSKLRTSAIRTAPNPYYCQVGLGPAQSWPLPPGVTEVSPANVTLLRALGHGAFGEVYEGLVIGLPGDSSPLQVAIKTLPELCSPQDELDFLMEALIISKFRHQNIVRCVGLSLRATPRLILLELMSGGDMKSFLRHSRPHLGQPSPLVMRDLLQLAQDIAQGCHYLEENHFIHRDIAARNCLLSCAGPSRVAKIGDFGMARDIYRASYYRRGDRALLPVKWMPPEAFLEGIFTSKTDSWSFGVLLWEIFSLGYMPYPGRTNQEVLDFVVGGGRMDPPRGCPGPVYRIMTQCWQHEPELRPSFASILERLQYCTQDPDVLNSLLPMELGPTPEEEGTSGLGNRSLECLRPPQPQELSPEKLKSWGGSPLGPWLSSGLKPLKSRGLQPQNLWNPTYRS

[5] = target: T5, panel of 374 wild-type kinases (Homo sapiens, UniProt O75582); details: read-out: % Enzyme Activity (relative to DMSO controls), MSK1/RPS6KA5
T5 construct: purchased Reaction Biology Corporation
T5 sequence (O75582 whole entry): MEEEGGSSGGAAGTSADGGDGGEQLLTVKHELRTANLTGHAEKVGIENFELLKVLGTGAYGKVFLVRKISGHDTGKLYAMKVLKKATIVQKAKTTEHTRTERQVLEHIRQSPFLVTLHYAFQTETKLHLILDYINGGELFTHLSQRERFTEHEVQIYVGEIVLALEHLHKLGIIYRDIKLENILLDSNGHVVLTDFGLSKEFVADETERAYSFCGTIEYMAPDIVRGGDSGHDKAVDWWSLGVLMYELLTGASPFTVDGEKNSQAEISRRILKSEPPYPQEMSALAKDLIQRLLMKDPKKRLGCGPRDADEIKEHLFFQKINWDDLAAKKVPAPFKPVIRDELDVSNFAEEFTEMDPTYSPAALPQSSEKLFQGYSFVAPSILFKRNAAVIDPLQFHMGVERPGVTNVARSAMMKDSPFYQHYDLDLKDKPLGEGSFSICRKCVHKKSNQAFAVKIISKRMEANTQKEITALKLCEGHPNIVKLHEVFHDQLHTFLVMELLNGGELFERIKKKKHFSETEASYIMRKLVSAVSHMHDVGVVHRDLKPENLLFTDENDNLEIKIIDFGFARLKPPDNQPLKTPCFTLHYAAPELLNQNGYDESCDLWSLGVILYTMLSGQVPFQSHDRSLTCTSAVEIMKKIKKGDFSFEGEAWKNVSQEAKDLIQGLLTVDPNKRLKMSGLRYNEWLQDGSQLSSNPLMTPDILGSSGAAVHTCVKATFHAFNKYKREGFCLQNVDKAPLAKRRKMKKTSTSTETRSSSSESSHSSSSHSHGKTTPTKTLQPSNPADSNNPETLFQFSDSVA

[6] = target: T6, panel of 374 wild-type kinases (Homo sapiens, UniProt P22607); details: read-out: % Enzyme Activity (relative to DMSO controls), FGFR3
T6 construct: purchased Reaction Biology Corporation
T6 sequence (P22607 23-806): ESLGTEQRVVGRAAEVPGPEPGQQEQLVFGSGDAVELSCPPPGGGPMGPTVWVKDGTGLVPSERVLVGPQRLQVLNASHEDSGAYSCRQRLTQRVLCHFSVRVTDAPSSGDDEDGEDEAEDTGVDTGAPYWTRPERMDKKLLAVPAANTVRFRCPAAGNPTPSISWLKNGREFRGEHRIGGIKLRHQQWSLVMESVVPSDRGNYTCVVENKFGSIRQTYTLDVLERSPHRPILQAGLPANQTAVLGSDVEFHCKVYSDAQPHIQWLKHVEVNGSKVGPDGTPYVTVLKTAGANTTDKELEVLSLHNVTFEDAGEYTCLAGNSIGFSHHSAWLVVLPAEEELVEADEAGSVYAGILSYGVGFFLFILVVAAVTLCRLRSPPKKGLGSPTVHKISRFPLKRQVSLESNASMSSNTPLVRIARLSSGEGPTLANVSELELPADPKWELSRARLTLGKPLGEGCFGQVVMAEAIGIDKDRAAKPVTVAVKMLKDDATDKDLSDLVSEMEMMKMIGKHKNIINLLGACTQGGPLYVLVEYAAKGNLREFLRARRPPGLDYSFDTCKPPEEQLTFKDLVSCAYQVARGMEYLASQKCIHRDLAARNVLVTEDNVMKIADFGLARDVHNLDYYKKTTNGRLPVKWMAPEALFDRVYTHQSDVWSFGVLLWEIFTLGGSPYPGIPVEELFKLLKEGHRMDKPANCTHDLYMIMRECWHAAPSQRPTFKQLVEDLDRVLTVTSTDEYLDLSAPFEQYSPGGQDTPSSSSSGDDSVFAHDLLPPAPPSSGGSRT

[7] = target: T7, panel of 374 wild-type kinases (Homo sapiens, UniProt Q9Y5S2); details: read-out: % Enzyme Activity (relative to DMSO controls), MRCKb/CDC42BPB
T7 construct: purchased Reaction Biology Corporation
T7 sequence (Q9Y5S2 whole entry): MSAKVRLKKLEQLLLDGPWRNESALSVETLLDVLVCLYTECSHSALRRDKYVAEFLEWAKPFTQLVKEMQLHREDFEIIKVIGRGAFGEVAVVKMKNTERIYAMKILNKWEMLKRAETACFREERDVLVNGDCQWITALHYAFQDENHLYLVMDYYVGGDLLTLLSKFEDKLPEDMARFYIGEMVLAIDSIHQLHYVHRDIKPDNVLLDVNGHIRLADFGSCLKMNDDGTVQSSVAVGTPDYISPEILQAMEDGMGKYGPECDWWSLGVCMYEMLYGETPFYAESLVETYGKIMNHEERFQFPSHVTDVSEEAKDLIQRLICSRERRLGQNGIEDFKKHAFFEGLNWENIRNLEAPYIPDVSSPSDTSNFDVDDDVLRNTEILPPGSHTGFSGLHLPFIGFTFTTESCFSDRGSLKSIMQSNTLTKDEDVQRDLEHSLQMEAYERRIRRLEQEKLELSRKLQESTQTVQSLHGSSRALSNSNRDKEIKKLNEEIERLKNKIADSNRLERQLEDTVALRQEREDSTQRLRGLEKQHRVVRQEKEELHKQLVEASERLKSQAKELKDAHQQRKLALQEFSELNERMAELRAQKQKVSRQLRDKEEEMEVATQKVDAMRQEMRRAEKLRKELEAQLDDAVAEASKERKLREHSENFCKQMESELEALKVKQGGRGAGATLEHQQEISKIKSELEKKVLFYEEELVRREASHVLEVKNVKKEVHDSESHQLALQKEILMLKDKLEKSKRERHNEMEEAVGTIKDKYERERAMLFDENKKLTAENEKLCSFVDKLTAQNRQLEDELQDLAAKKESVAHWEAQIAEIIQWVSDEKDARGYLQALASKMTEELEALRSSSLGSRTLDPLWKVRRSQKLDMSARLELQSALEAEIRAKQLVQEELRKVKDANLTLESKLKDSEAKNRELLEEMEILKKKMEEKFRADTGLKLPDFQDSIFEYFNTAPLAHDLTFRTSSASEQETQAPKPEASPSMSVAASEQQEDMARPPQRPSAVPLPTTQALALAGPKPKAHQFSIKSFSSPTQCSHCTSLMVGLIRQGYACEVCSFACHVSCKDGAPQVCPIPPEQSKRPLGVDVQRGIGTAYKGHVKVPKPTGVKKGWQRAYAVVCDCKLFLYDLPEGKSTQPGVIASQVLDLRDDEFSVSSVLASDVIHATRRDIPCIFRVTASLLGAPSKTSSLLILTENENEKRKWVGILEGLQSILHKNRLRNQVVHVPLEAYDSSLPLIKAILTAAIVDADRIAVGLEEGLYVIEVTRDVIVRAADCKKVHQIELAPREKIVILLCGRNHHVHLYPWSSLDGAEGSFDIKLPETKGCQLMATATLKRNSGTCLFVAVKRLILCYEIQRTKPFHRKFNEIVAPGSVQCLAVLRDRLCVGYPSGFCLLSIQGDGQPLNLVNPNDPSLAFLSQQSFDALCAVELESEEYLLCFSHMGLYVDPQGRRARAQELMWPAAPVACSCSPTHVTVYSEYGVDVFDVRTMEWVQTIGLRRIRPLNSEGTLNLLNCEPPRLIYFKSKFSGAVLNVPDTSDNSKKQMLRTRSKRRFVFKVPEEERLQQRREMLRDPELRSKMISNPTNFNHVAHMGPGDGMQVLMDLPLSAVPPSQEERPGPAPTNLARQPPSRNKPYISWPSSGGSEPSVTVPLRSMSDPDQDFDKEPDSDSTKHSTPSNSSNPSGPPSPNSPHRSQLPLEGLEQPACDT

[8] = target: T8, panel of 374 wild-type kinases (Homo sapiens, UniProt P04626); details: read-out: % Enzyme Activity (relative to DMSO controls), ERBB2/HER2
T8 construct: purchased Reaction Biology Corporation

[9] = target: T9, panel of 374 wild-type kinases (Homo sapiens, UniProt Q92630); details: read-out: % Enzyme Activity (relative to DMSO controls), DYRK2
T9 construct: purchased Reaction Biology Corporation
T9 sequence (Q92630 1-601): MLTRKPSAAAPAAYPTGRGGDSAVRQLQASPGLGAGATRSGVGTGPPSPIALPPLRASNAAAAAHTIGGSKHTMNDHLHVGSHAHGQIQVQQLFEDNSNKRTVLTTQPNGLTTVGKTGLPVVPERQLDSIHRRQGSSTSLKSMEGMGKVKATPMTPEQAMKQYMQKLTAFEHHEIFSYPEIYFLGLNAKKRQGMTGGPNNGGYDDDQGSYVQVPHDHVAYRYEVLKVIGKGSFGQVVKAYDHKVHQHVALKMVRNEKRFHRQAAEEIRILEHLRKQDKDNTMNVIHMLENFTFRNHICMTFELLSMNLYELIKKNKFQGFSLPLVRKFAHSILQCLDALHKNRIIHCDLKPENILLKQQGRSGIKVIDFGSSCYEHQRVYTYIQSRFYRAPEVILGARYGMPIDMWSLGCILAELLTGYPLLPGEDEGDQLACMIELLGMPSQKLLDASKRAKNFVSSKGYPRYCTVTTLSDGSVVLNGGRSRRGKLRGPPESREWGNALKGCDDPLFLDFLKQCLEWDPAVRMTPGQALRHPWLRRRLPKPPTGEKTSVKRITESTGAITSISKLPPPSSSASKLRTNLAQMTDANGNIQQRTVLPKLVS

[10] = target: T10, panel of 374 wild-type kinases (Homo sapiens, UniProt Q08345); details: read-out: % Enzyme Activity (relative to DMSO controls), DDR1
T10 construct: purchased Reaction Biology Corporation

Which results are given for `Cc1sc(C(=O)NC2COC2)cc1-n1cc(NC(=O)Nc2c(F)cccc2Cl)cn1` [Compound 27, 4-(4-(3-(2-chloro-6-fluorophenyl)ureido)-1H-pyrazol-1-yl)-5-methyl-N-(oxetan-3-yl)thiophene-2-carboxamide]?
remaining activity at 10 µM ([1]; 10 uM): 100%; remaining activity at 10 µM ([2]; 10 uM): 118%; remaining activity at 10 µM ([3]; 10 uM): 95.9%; remaining activity at 10 µM ([4]; 10 uM): 114%; remaining activity at 10 µM ([5]; 10 uM): 111%; remaining activity at 10 µM ([6]; 10 uM): 137%; remaining activity at 10 µM ([7]; 10 uM): 112%; remaining activity at 10 µM ([8]; 10 uM): 64.1%; remaining activity at 10 µM ([9]; 10 uM): 96.3%; remaining activity at 10 µM ([10]; 10 uM): 83.7%

Which results are given for `O=C(Nc1cnn(-c2csc(C(=O)NC3COC3)c2)c1)Nc1c(F)cccc1Cl` [Compound 25, 4-(4-(3-(2-chloro-6-fluorophenyl)ureido)-1H-pyrazol-1-yl)-N-(oxetan-3-yl)thiophene-2-carboxamide]?
remaining activity at 5 µM [1]: 84.3%; remaining activity at 5 µM [2]: 141%; remaining activity at 5 µM [3]: 90.7%; remaining activity at 5 µM [4]: 92.2%; remaining activity at 5 µM [5]: 104%; remaining activity at 5 µM [6]: 92%; remaining activity at 5 µM [7]: 89%; remaining activity at 5 µM [8]: 97%; remaining activity at 5 µM [9]: 93.6%; remaining activity at 5 µM [10]: 88.9%

Which remaining activity at 5 µM [1] does the source give for `O=C(Nc1cnn(-c2csc(C(=O)NC3COC3)c2)c1)Nc1ccccc1Cl` [Compound 17, 4-(4-(3-(2-chlorophenyl)ureido)-1H-pyrazol-1-yl)-N-(oxetan-3-yl)thiophene-2-carboxamide] here?
The remaining activity at 5 µM was 88.2%.

And the remaining activity at 5 µM [2]?
Its remaining activity at 5 µM is 98.7%.

What about the remaining activity at 5 µM [3] of the same molecule?
The remaining activity at 5 µM was 101%.

What about the remaining activity at 5 µM [4] of the same molecule?
The remaining activity at 5 µM was 99.2%.

And the remaining activity at 5 µM [5]?
The remaining activity at 5 µM was 89.5%.

And the remaining activity at 5 µM [6]?
The remaining activity at 5 µM was 97.8%.

What about the remaining activity at 5 µM [7] of the same molecule?
Its remaining activity at 5 µM is 97.1%.

What about the remaining activity at 5 µM [8] of the same molecule?
Its remaining activity at 5 µM is 103%.

What about the remaining activity at 5 µM [9] of the same molecule?
Its remaining activity at 5 µM is 88.2%.

And the remaining activity at 5 µM [10]?
Its remaining activity at 5 µM is 98.4%.
